Test results reported in paper PMC6505943, “Identification of a potential allosteric site of Golgi α-mannosidase II using computer-aided drug design” (PLoS ONE, 2019).
“Also recorded” adds a separate entry of the source. Like-named read-outs stand apart in the source and are kept apart here. Each block holds one compound with its values, some of them ahead of it.

Columns and labels:
[1] = test system: β-glucosidase of sweet almonds; assay: selectivity enzyme assay with β-glucosidase of sweet almonds (4-MU-Glc substrate); type: biochemical
Protocol: (§1) Inhibition assays with dGMII were performed at pH 5.75 in MES buffer (40 mM), supplemented with bovine serum albumin 1.1% (0.1% final concentration in MES buffer) and ZnSO4-solution 1.1% (0.1% final concentration in MES buffer). The recombinantly expressed and purified enzyme was added to a final concentration of 0.002 mg/mL per well. 4-Methylumbellifer-7-yl-α-D-mannopyranoside (4-MU-Man) was synthesized (S1 File and S2 Fig) and used as substrate with a final concentration of 1 mM per well. The total reaction volume was 50 μL and the mixture was incubated at 37°C for five minutes. […] The release of 4-methylumbelliferone was measured for 15 min by fluorescence spectroscopy using Greiner 96 Flat Bottom Black Polystyrol plates and a Tecan Reader Infinite F200 PRO equipped with a filter system (355 nm excitation and 485 nm emission). Assays in order to investigate the selectivity of compounds between different mannosidases were carried out on JBM. Assays concerning the selectivity between the desired mannosidase inhibition and a potential glucosidase inhibition were carried out on the β-glucosidase of sweet almonds using 4-methylumbelliferyl-β-D-glucopyranoside (4-MU-Glc) as substrate. The substrate 4-MU-Glc was synthesized as described in the supplementary information (S1 File and S3 Fig). JBM and β-glucosidase from sweet almonds were purchased from Sigma Aldrich. […]

[2] = molecular target: T1, Golgi α-mannosidase II from Drosophila melanogaster (dGMII) (Drosophila melanogaster, UniProt Q24451); assay: fluorometric enzyme inhibition assay with dGMII (4-MU-Man substrate); type: biochemical; conditions: for inhibition at 300 µM: at 300 μM compound, 1 mM 4-MU-Man, pH 5.75
T1 construct: His tag; made in house; host or cells: Drosophila Schneider 2 (S2) cells, secreted into the medium
T1 sequence (Q24451 76-1108 limits assumed): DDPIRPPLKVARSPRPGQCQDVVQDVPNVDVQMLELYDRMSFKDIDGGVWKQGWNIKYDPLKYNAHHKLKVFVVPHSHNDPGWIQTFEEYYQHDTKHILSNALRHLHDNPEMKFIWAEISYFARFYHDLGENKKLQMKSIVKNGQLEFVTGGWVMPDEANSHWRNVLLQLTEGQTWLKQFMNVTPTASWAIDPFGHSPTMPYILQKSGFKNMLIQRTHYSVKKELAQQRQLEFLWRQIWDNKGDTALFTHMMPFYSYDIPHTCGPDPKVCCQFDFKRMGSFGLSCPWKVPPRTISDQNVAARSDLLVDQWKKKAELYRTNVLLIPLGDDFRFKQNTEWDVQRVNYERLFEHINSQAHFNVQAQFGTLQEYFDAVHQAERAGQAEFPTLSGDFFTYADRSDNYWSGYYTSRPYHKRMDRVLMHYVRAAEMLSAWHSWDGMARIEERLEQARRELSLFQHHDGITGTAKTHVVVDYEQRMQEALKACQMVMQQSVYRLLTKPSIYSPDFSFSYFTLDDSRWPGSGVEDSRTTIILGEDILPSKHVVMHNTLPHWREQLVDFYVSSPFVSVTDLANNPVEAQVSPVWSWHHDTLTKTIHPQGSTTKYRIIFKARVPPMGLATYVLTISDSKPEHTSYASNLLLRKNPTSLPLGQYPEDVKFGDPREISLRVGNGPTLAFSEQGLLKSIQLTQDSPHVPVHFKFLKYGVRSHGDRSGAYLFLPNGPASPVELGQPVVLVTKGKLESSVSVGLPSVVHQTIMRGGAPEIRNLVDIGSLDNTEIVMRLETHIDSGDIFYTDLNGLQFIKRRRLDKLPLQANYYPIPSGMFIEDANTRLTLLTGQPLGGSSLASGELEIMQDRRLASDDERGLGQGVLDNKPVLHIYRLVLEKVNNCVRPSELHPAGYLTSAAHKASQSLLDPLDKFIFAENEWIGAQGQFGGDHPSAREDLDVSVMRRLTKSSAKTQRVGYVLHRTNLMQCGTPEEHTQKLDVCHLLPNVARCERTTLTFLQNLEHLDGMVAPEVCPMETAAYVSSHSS
Protocol: Inhibition assays with dGMII were performed at pH 5.75 in MES buffer (40 mM), supplemented with bovine serum albumin 1.1% (0.1% final concentration in MES buffer) and ZnSO4-solution 1.1% (0.1% final concentration in MES buffer). The recombinantly expressed and purified enzyme was added to a final concentration of 0.002 mg/mL per well. 4-Methylumbellifer-7-yl-α-D-mannopyranoside (4-MU-Man) was synthesized (S1 File and S2 Fig) and used as substrate with a final concentration of 1 mM per well. The total reaction volume was 50 μL and the mixture was incubated at 37°C for five minutes. […] The release of 4-methylumbelliferone was measured for 15 min by fluorescence spectroscopy using Greiner 96 Flat Bottom Black Polystyrol plates and a Tecan Reader Infinite F200 PRO equipped with a filter system (355 nm excitation and 485 nm emission). Assays in order to investigate the selectivity of compounds between different mannosidases were carried out on JBM. Assays concerning the selectivity between the desired mannosidase inhibition and a potential glucosidase inhibition were carried out on the β-glucosidase of sweet almonds using 4-methylumbelliferyl-β-D-glucopyranoside (4-MU-Glc) as substrate. The substrate 4-MU-Glc was synthesized as described in the supplementary information (S1 File and S3 Fig). JBM and β-glucosidase from sweet almonds were purchased from Sigma Aldrich. The enzyme β-glucosidase from sweet almonds was diluted in citrate buffer in order to obtain a concentration of 0.04 mg/mL. The inhibition assays were carried out at a pH of 5.0 in citrate buffer (20 mM). The substrate concentration was chosen to be 1 mM per well in accordance with the results of several KM value determinations since this concentration ensures good enzyme activity (KM = 1.9 ± 0.1 mM). Inhibition assays JBM were performed in the same buffer as for dGMII. The final concentration of the enzyme per well was 0.003 mg/ml. The substrate 4-MU-Man was used with a final concentration of 0.4 mM per well. The conducted assays with JBM and the β-glucosidase from sweet almonds were performed as described for dGMII.
The most promising compounds according to the molecular modeling studies were tested at 300 μM final concentration except for compound 24 which was tested at 100 μM per well due to the small amount available. […] The inhibition was calculated with the following Eq (2): Inhibition(%)=(1−activity(withinhibitor)/activity(withoutinhibitor))∙100 (2)
KM values were calculated using the Michaelis-Menten kinetics Eq (3) v=vmax[S]/KM+[S] (3) whereby vmax is the maximal velocity, [S] the substrate concentration and KM the substrate concentration yielding a velocity of vmax/2.
IC50 values were calculated using following Eq (4): y=ymax−ymin/1+([I]/IC50)^S+ymin (4) whereby ymax is defined as 100% enzyme activity, ymin as 0% enzyme activity, s is defined as the slope of the linear part of the curves (Hill coefficient), and [I] represents the inhibitor concentration. For the KM value determination, substrate concentrations ranging from 0.4 to 8.0 mM for dGMII and from 0.008 to 1.6 mM for JBM were used. For the IC50 determination of swainsonine, concentrations ranging from 6 to 120 nM were applied. […] The program GraFit (5.0.13, Erithacus Software, Horley, Surrey, UK (2006)) was used to calculate the IC50 values.

[3] = molecular target: T2, JBM (Canavalia ensiformis, UniProt C0HJB3); assay: selectivity enzyme assay with JBM (4-MU-Man substrate); type: biochemical, Jack bean
T2 construct: purchased Sigma Aldrich
T2 sequence (C0HJB3 1-562 limits assumed): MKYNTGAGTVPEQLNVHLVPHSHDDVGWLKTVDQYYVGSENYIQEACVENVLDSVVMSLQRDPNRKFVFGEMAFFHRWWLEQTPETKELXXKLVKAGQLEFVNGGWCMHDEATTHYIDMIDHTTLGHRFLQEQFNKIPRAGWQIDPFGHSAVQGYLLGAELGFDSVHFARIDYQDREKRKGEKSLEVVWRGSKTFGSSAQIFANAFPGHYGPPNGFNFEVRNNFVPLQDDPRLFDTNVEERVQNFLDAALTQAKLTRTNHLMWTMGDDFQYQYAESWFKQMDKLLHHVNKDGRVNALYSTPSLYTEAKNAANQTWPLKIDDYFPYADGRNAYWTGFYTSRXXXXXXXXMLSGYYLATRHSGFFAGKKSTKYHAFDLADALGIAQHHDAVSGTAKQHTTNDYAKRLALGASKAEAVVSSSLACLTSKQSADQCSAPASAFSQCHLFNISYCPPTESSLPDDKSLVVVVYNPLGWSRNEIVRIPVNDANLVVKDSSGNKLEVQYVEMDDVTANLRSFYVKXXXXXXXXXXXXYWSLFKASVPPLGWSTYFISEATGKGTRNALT
T2 sequence (C0HJB3 563-981 limits assumed): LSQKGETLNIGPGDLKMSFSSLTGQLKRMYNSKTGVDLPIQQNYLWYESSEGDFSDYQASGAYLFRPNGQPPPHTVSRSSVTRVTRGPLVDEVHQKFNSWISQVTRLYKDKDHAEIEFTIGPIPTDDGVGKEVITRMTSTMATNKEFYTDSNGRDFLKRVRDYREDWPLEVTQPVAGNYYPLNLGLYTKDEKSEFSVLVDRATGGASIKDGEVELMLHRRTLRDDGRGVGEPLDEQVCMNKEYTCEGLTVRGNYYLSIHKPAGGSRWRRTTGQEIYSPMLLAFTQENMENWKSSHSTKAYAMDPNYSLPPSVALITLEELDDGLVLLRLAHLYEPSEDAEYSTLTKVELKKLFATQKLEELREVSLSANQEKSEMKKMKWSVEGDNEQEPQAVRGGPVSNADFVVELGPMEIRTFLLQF
Protocol: as §1, with “Fig).” for “Fig). JBM and β-glucosidase from sweet almonds were purchased from Sigma Aldrich.”
KM values were calculated using the Michaelis-Menten kinetics Eq (3) v=vmax[S]/KM+[S] […]

SMILES: Cc1cc(=O)oc2cc(O[C@@H]3O[C@H](CO)[C@@H](O)[C@H](O)[C@H]3O)ccc12 [4-MU-Glc, 4-methylumbelliferyl-β-D-glucopyranoside, reference compound]
Km ([1]; substrate of β-glucosidase from sweet almonds): 1900 ± 100 µM

SMILES: O[C@H]1[C@H]2[C@H](O)CCCN2C[C@H]1O [swainsonine, reference compound]
IC50 [2]: 0.034 ± 0.0014 µM

SMILES: O=C(Cc1ccn[nH]1)NC[C@@H](O)c1cc2ccccc2s1 [Compound 20]
inhibition at 300 µM [2]: ~41%

Continued, in another order:

mode of inhibition ([2]; IC50 at varying substrate concentrations 0.1 to 3 mM): non-competitive inhibition | inhibition at 300 µM [2]: ~46% | ligand efficiency ([2]; based on the inhibitory activity observed in the fluorometric assay): approximately 0.20 kcal/mol | IC50 ([2]; dGMII, 4-MU-Man substrate, read-out: IC50): 217 ± 44.3 µM | inhibition at 300 µM ([3]; at 300 μM, 0.4 mM 4-MU-Man): 70%
SMILES: N#CC(C(=O)C1CCCCN1C(=O)c1cccnc1)c1ccccn1 (centres unmarked) [Compound 18]
inhibition of the β-glucosidase of sweet almonds ([1]; at 300 μM, 1 mM 4-MU-Glc, pH 5.0): no significant inhibition; also recorded: did not exhibit significant inhibition

Km ([2]; substrate of dGMII): 3600 ± 300 µM | Km ([3]; substrate of JBM): 600 ± 60 µM
SMILES: Cc1cc(=O)oc2cc(O[C@H]3O[C@H](CO)[C@@H](O)[C@H](O)[C@@H]3O)ccc12 [4-MU-Man, 4-Methylumbellifer-7-yl-α-D-mannopyranoside, reference compound]
